Experimental data reported in patent US20230392180A1, “MICROSCOPIC IMAGING AND ANALYSES OF EPIGENETIC LANDSCAPE” (Sanford Burnham Prebys Medical Discovery Institute, priority 2020, published 2023).
Counter-ions that a name gives are not always drawn.

Columns and labels:
primary human fNPCs = assay: MIEL-EpiTox of ToxCast Phase I/II+elk library compounds; conditions: 10 μM, 72 h, H3K27ac and H3K27me3
Procedure: Cells were treated with test compounds, then fixed and immunolabeled for epigenetic marks. The pattern of marks within each nucleus was analyzed to create multivariate signatures or “fingerprints” of each perturbation. Since the technique analyzes texture features rather than intensities and morphologies, culturing and immunostaining artifacts are reduced. MIEL is related to “cell painting”, in which multivariate analysis of multiplexed biomarkers was used to classify protein localization, cell subpopulations, and drug mechanisms of action. The multiparametric signatures of the cells (centroids) were plotted in 2D via multidimensional scaling (MDS), and support vector machine (SVM) classification was used to establish borders to divide the epigenetic signatures into distinct classes. MIEL was employed to probe the presence of epitoxic compounds in the EPA ToxCast Phase I/II+elk library and examined the effects of 352 compounds on primary human fNPCs (Thermo-Fisher, #A15654). Cells were incubated with 10 μM compound for 72 h, labeled with fluorescence-tagged antibodies to H3K27ac and H3K27me3, and imaged on a Vala Sciences IC200 cytometer. Features were derived using Acapella (Perkin Elmer) high-content imaging and analysis software. SVM classification was conducted as previously described. […] The same criteria were applied to determine toxicity.

[1] = single report; cited from earlier work
[2] = cited from earlier work
GBM2 cells = assay: Sensitization to radiation or TMZ; type: cell-based, human; conditions: 200 uM, 4 days
Procedure: Sensitization to radiation or TMZ: Cells were plated at 1500 cells/well in 384-well optical bottom assay plates (PerkinElmer). Two sets of the experiment were prepared; DMSO (0.1%) was used for negative controls at 48 DMSO replicates per plate; 3 replicates (wells) were treated per compound. Cells in both sets were pre-treated with epigenetic compounds for 2 days prior to cytotoxic treatment. Cytotoxic treatment, either 200 uM temozolomide (TMZ, Sigma) or 1 Gy x-ray radiation (RS2000; RAD Source) was carried out for 4 days on single set (‘treatment set’); for TMZ treatment, DMSO control was given to the second set. A single radiation dose was given at day 3; TMZ was given twice at days 3 and 5 of the experiment. Cells were fixed, stained with DAPI, and scored using an automated microscope (Celigo; Nexcelom Bioscience). For each compound, fold change in cell number was calculated for both the “treatment set” (Drug+Cytotox) and the “control set” (Drug), compared to DMSO-treated wells in the control set. The effect of radiation or TMZ alone was calculated as fold reduction of DMSO-treated wells in the treatment set compared to DMSO-treated wells in the control set (Cytotox). The coefficient of drug interaction (CDI) was calculated as […]. […]

[3] = Exposure estimated from publicly available information; conditions: women, estimating 50-75 kg body weight

SMILES: CCCCOC(=O)COc1ccc(Cl)cc1Cl [2,4-D 1-butyl ester]
- MIEL-EpiTox class (epitoxic, cytotoxic, inert) (primary human fNPCs): epitoxic hits producing the largest epigenetic perturbations

SMILES: Cc1sc2c(c1C)C(c1ccc(Cl)cc1)=N[C@@H](CC(=O)Nc1ccc(O)cc1)c1nnc(C)n1-2 [OTX015]
- interaction with TMZ [1]: synergy
- toxicity in clinical trials ([2]; doses achieving biologically active levels): low toxicity
- clinical benefits ([2]; in vivo): no detectable clinical benefits

SMILES: Cn1nnc2c(C(N)=O)ncn2c1=O [TMZ, temozolomide]
- reduction in cell numbers (GBM2 cells): 50%

SMILES: C[C@@H]1C[C@H]2[C@@H]3CCC4=CC(=O)C=C[C@]4(C)[C@@]3(F)[C@@H](O)C[C@]2(C)[C@@]1(O)C(=O)COS(=O)(=O)O [dexamethasone sulfate]
- estimated concentrations reached following repeated administration [3]: ~10 µM
